In ChEMBL document CHEMBL4630901 (2021):
pKi: −log10 of the molar value. Active and inactive are the calls of the source. The rule behind the calls is not given here.

Tests used:
[1] = target: 5-hydroxytryptamine receptor 3A (Homo sapiens, UniProt P46098); test: GPCRScan assay: inhibition of 5-HT3; parameters: radioligand conc. used [nm] 1.0 – 2.0, parental cells HEKT
[2] = target: Sigma intracellular receptor 2 (Homo sapiens, UniProt Q5BJF2); test: GPCRScan assay: inhibition of Sigma 2; parameters: radioligand conc. used [nm] 5.0, parental cells HEKT
[3] = target: Sodium-dependent noradrenaline transporter (Homo sapiens) (UniProt P23975); settings: Compound concentration 10.0 uM
[4] = target: Sigma non-opioid intracellular receptor 1 (Homo sapiens) (UniProt Q99720); settings: Compound concentration 10.0 uM
[5] = target: Prostaglandin E2 receptor EP4 subtype (Homo sapiens) (UniProt P35408); test: Inhibition of Prostanoid EP4 at 10 µM in the Eurofins-Panlabs radioligand binding assay (Eurofins_assay_268420); parameters: ligand concentration 1 nM
[6] = species: Oryctolagus cuniculus; test: Inhibition of Purinergic P2X at 10 µM in the Eurofins-Panlabs radioligand binding assay (Eurofins_assay_268700); format: protein assay; settings: Compound concentration 10.0 uM
[7] = target: Prostaglandin F2-alpha receptor (Mus musculus, UniProt P43117); test: Bayer inhouse assay (mouse)
[8] = target: Prostacyclin receptor (Homo sapiens) (UniProt P43119); test: IP (PGI2) Eurofins-Panlabs radioligand binding assay; parameters: ligand concentration 6 nM
[9] = target: T1, Prostaglandin D2 receptor (Homo sapiens) (UniProt Q13258); test: Prostanoid DP Eurofins-Panlabs radioligand binding assay; parameters: ligand concentration 2 nM
T1 sequence (whole entry): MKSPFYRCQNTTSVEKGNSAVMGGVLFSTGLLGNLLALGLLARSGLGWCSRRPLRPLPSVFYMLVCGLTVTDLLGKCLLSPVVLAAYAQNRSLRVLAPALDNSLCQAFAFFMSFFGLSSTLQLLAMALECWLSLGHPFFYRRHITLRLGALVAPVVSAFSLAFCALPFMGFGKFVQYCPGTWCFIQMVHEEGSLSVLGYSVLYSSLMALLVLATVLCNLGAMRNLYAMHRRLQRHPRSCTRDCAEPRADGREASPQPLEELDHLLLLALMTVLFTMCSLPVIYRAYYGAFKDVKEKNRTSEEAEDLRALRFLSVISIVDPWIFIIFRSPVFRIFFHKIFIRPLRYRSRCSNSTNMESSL

[10] = target: Histamine H4 receptor (Homo sapiens) (UniProt Q9H3N8); settings: Compound concentration 10.0 uM
[11] = target: Beta-2 adrenergic receptor (Homo sapiens) (UniProt P07550); settings: Compound concentration 10.0 uM
[12] = target: Cannabinoid receptor 1 (Homo sapiens) (UniProt P21554); settings: Compound concentration 10.0 uM
[13] = target: D(3) dopamine receptor (Homo sapiens) (UniProt P35462); settings: Compound concentration 10.0 uM
[14] = target: T2, Muscarinic acetylcholine receptor M2 (Homo sapiens) (UniProt P08172); settings: Compound concentration 10.0 uM
T2 sequence (whole entry): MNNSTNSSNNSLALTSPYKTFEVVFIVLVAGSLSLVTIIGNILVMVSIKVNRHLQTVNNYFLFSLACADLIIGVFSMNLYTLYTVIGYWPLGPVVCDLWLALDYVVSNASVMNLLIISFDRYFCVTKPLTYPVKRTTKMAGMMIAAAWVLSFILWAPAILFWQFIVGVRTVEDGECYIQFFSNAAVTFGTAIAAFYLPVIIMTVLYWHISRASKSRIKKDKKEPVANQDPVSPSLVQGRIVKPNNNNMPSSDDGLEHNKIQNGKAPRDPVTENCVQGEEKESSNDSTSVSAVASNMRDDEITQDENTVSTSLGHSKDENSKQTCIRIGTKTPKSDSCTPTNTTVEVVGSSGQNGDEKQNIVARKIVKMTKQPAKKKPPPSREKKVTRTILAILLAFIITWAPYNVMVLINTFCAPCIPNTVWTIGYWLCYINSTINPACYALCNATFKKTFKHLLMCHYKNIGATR

[15] = target: Muscarinic acetylcholine receptor M3 (Homo sapiens) (UniProt P20309); settings: Compound concentration 10.0 uM
[16] = target: Delta-type opioid receptor (Homo sapiens) (UniProt P41143); settings: Compound concentration 10.0 uM
[17] = target: Sodium-dependent noradrenaline transporter (Homo sapiens) (UniProt P23975); settings: Compound concentration 10.0 uM; remark: listed apart in the source
[18] = target: Glucocorticoid receptor (Homo sapiens) (UniProt P04150); settings: Compound concentration 10.0 uM
[19] = target: Beta-3 adrenergic receptor (Homo sapiens) (UniProt P13945); settings: Compound concentration 10.0 uM
[20] = target: Type-2 angiotensin II receptor (Homo sapiens) (UniProt P50052); settings: Compound concentration 10.0 uM
[21] = target: Glutamate receptor 2 (Homo sapiens) (UniProt P42262); settings: Rattus norvegicus; Compound concentration 10.0 uM
[22] = target: Cannabinoid receptor 2 (Homo sapiens) (UniProt P34972); settings: Compound concentration 10.0 uM
[23] = target: Gamma-aminobutyric acid type B receptor subunit 1 (Homo sapiens) (UniProt Q9UBS5); settings: Rattus norvegicus; Compound concentration 10.0 uM
[24] = target: Growth hormone secretagogue receptor type 1 (Homo sapiens) (UniProt Q92847); settings: Compound concentration 10.0 uM
[25] = target: Progesterone receptor (Homo sapiens) (UniProt P06401); settings: Compound concentration 10.0 uM
[26] = Compound concentration 0.001 uM

Prostaglandin E2 receptor EP4 subtype (Homo sapiens), sequence (P35408 whole entry): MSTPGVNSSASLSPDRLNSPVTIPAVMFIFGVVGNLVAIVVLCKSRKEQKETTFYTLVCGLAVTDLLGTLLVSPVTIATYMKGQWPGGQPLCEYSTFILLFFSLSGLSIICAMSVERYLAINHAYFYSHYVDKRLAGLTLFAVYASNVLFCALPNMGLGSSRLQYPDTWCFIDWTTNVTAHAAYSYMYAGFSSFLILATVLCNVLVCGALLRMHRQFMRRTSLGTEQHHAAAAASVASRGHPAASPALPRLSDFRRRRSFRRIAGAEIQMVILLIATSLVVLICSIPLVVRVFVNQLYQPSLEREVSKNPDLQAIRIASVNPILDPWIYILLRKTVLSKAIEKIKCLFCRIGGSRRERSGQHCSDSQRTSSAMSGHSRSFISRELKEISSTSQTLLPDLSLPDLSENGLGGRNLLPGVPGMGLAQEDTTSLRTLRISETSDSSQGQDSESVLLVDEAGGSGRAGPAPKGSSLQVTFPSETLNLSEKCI
Prostacyclin receptor (Homo sapiens), sequence (P43119 whole entry): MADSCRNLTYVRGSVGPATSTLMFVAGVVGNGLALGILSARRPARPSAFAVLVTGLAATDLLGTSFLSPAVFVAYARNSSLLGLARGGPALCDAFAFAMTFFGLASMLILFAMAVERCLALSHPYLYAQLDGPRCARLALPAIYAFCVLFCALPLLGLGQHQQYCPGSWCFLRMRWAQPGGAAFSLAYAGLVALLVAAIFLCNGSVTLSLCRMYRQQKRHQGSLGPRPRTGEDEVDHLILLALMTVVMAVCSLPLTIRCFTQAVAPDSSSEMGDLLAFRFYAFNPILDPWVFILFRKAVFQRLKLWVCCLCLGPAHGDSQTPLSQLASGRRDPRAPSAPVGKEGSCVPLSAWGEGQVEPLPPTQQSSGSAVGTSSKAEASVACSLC
5-hydroxytryptamine receptor 3A, sequence (P46098 whole entry): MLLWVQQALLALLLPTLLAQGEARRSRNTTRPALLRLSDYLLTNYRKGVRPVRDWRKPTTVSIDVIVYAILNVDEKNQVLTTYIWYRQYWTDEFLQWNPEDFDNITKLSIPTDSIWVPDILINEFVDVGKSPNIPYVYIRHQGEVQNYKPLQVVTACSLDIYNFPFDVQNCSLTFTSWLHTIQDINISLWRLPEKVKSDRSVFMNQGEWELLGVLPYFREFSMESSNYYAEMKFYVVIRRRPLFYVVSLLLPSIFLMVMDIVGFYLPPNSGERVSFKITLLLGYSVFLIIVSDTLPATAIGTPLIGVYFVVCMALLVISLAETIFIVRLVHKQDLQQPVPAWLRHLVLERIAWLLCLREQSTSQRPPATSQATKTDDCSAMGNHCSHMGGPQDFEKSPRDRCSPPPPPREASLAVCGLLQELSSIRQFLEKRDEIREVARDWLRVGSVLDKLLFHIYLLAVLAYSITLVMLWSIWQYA
Sodium-dependent noradrenaline transporter (Homo sapiens), sequence (P23975 whole entry): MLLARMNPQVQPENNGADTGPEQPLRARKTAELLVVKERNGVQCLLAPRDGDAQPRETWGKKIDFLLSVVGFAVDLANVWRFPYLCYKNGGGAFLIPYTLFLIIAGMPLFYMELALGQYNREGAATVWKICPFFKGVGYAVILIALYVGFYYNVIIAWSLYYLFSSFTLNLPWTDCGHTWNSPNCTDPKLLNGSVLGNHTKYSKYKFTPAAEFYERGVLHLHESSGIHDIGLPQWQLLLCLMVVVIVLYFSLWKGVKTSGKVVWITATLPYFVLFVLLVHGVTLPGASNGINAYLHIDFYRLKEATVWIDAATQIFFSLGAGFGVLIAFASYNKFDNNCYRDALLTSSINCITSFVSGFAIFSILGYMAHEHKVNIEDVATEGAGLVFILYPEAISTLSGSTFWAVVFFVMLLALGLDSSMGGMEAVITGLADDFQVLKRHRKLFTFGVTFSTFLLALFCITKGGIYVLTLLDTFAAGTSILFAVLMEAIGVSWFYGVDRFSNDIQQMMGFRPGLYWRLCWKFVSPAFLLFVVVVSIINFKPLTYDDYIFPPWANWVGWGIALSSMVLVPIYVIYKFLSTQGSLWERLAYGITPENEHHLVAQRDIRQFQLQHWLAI
D(3) dopamine receptor (Homo sapiens), sequence (P35462 whole entry): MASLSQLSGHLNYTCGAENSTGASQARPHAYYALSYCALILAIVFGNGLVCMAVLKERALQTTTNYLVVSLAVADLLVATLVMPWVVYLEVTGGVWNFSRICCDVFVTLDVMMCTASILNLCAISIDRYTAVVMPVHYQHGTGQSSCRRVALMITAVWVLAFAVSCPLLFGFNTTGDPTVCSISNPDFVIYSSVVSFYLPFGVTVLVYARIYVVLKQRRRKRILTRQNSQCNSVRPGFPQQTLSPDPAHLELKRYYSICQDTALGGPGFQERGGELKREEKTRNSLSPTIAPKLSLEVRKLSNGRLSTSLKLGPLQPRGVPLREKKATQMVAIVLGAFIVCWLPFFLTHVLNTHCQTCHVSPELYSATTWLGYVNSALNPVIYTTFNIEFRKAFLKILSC
Beta-2 adrenergic receptor (Homo sapiens), sequence (P07550 whole entry, looked up): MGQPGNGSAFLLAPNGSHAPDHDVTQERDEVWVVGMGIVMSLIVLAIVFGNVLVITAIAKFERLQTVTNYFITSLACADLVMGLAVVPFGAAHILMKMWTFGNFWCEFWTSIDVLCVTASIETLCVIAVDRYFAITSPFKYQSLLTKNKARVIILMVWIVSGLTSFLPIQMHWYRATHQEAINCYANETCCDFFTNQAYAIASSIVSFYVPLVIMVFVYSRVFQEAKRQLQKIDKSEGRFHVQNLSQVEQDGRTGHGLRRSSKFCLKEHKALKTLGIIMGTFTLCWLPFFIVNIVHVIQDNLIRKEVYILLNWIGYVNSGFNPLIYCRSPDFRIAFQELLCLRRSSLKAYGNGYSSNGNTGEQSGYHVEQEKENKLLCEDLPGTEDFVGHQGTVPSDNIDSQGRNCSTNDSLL
Prostaglandin F2-alpha receptor, sequence (P43117 whole entry): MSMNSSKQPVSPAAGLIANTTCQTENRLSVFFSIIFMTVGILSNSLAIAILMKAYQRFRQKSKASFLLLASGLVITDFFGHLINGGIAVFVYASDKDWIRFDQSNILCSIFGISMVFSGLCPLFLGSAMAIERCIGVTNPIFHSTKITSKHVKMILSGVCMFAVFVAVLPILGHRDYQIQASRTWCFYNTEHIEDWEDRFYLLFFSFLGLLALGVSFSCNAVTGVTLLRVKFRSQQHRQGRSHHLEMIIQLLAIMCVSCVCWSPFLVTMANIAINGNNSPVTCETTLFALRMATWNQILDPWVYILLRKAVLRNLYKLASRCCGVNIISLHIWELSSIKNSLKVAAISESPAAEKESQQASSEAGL
Gamma-aminobutyric acid type B receptor subunit 1 (Homo sapiens), sequence (Q9UBS5 whole entry): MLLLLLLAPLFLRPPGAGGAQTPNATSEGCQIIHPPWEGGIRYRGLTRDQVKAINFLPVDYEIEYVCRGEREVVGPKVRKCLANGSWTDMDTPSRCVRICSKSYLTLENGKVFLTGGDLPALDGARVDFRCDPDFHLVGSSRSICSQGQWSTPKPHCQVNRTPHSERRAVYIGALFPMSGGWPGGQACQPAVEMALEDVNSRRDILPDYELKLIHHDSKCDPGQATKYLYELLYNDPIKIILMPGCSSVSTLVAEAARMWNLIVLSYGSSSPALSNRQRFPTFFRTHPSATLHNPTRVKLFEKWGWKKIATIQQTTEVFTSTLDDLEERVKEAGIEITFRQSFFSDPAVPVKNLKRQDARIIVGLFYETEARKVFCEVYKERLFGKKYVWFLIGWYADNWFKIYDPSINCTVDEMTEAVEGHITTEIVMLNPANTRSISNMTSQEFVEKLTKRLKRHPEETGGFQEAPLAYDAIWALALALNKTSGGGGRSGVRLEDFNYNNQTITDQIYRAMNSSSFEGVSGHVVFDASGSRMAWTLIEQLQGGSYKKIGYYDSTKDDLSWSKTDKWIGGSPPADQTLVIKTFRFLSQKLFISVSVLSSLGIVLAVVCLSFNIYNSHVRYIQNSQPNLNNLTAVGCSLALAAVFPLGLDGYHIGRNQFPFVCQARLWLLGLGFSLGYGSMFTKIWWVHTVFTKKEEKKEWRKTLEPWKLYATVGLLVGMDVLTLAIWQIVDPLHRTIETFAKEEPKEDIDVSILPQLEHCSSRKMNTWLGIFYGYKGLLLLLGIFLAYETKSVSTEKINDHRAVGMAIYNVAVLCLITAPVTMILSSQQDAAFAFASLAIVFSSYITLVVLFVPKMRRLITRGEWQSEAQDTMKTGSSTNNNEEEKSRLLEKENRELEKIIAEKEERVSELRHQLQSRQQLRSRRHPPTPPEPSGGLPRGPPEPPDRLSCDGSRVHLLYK
Cannabinoid receptor 1 (Homo sapiens), sequence (P21554 whole entry): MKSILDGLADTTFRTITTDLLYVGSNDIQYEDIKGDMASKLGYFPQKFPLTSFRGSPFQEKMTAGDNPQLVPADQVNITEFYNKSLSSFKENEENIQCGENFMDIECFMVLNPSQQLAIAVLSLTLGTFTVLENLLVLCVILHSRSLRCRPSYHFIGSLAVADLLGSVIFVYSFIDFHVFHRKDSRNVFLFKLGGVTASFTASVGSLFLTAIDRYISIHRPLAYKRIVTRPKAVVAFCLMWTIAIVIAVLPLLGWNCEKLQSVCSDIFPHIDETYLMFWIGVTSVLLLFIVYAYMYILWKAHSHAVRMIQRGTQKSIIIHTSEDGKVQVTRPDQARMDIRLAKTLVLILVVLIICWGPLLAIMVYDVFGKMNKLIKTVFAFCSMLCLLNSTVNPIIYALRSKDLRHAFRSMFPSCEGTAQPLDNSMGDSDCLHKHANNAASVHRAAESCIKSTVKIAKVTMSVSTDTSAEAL
Type-2 angiotensin II receptor (Homo sapiens), sequence (P50052 whole entry): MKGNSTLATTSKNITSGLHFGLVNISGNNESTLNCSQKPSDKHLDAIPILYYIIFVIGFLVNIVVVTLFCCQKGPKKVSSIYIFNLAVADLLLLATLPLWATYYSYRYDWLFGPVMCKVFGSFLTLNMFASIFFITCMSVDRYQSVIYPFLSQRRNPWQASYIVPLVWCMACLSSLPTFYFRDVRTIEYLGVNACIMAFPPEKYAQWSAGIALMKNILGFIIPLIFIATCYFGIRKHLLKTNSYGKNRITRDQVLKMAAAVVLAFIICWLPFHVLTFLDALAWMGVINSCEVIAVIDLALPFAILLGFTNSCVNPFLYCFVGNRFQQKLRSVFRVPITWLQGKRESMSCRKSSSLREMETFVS

SMILES: Cc1c(N2CCNCC2)nc2ccc(Br)cc2c1C(=O)NC[C@H](CCC(=O)O)c1ccccc1Cl [BAY-403]
- pKi ([1]; read-out: Ki): 6.23
- Ki ([1]; read-out: pKi (converted)): 537 nM
- pKi [2]: 5.96
- inhibition [3]: 14.1%
- inhibition [4]: 36.5%

SMILES: Cc1c(N2CCCC2)nc2ccc(Br)cc2c1C(=O)NC[C@H](CCC(=O)O)c1ccccc1Cl [BAY-6672]
- inhibition [5, 26]: -6%
- inhibition ([5]; Compound concentration 0.01 uM): -1%
- inhibition ([5]; Compound concentration 0.1 uM): 6%
- inhibition ([5]; Compound concentration 1.0 uM): 17%
- inhibition ([5]; Compound concentration 10.0 uM): 48%
- inhibition [6]: 25%
- IC50 [7]: 5 nM (active)
- inhibition [8, 26]: 3%
- inhibition ([8]; Compound concentration 0.01 uM): -2%
- inhibition ([8]; Compound concentration 0.1 uM): -3%
- inhibition ([8]; Compound concentration 1.0 uM): -0%
- inhibition ([8]; Compound concentration 10.0 uM): 20%
- inhibition [9, 26]: 6%
- inhibition ([9]; Compound concentration 0.01 uM): 6%
- inhibition ([9]; Compound concentration 0.1 uM): 18%
- inhibition ([9]; Compound concentration 1.0 uM): 24%
- inhibition ([9]; Compound concentration 10.0 uM): 42%
- inhibition [10]: 13.1%
- inhibition [11]: 18%
- inhibition [12]: 10%
- inhibition [13]: 10%
- inhibition [14]: 3%
- inhibition [15]: 8%
- inhibition [16]: 5%
- inhibition [17]: 32%
- inhibition [18]: 11%
- inhibition [19]: 4%
- inhibition [20]: 2%
- inhibition [21]: -3%
- inhibition [22]: 13%
- inhibition [23]: -4%
- inhibition [24]: 3%
- inhibition [25]: 14%
